Measured values published in patent US20230265116A1, “DEGRADATION OF (EGFR) BY CONJUGATION OF EGFR INHIBITORS WITH E3 LIGASE LIGAND AND METHODS OF USE” (BEIGENE, LTD., priority 2020, published 2023).

Tests used:
Type in all cases: cell-based
[1] = target: T1, EGFR L858R/T790M/C797S (BaF3-LTC cells) (Homo sapiens, UniProt P00533, C797S/L858R/T790M); assay: EGFR degradation HTRF assay, BaF3-LTC cells; conditions: BaF3-LTC cells; for DC50: EGFR degradation, IC50 (DC50) from curve fit, read-out: DC50(nM) BaF3-LTC; for Dmax: read-out: Dmax (%) BaF3-LTC
T1 construct: expressed in transfected cells; host or cells: BaF3
Procedure, shortened: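 EGFR remaining after a 16 h, 37 °C exposure (8 doses, 5-fold steps from 10 uM final, 0.2% DMSO) was quantified by HTRF antibodies in cell lysate. Percent inhibition relative to DMSO control was fitted by four-parameter logistic to give DC50; Dmax denotes maximal degradation.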

[2] = target: T2, EGFR L858R/C797S (BaF3 LC cells) (Homo sapiens, UniProt P00533, C797S/L858R); assay: EGFR degradation HTRF assay, BaF3 LC cells; conditions: BaF3 LC, 16h treatment; for DC50: read-out: BaF3 LC DC50; for Dmax: read-out: BaF3 LC Dmax (%)
T2 construct: expressed in transfected cells; host or cells: BaF3

[3] = system: EGFR Del19/T790M/C797S (H1975-clone #28); assay: EGFR degradation HTRF assay, H1975-clone #28 DTC cells; conditions: H1975 # 28 DTC cells; for DC50: EGFR degradation, IC50 (DC50) from curve fit, read-out: DC50(nM) H1975 # 28 DTC; for Dmax (%) H1975 # 28 DTC: maximum percentage of inhibition (degradation)
Procedure, shortened: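 Cells were dosed on day 2 with an 8-point, 5-fold dilution series starting at 10 uM final and incubated 16h at 37° C. After lysis for 1 hour, HTRF antibodies were added overnight at room temperature and the plate was read at 665/620 nm. Degradation was normalised to DMSO wells and fitted for DC50 and Dmax.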

[4] = system: EGFR Del19/C797S (H1975-clone #23); assay: EGFR degradation HTRF assay, H1975-clone #23 DC cells; conditions: 16h treatment; for H1975 #23 DC Dmax (%): maximum percentage of degradation; for DC50: H1975 #23 DC, read-out: H1975 #23 DC DC50
Protocol: H1975-clone #28(Del19/T790M/C797S) and H1975-clone #23(Del19/C797S). EGFR-Del19/T790M/C797S and EGFR-Del19/C797S were stably expressed in H1975 cell lines by lentivirus-mediated over-expression, respectively. The EGFR over-expressed cells then underwent gene knockout, in which the EGFR targeting sgRNA was designed to only target the endogenous EGFR copies and preserve the exogenous EGFR copies. Followed by the gene knockout, the edited H1975 cells were seeded in 96 well plates at the concentration of 1 cell/well, cultured for about 2 weeks to allow single clones formation. The formed clones were screened by DNA sequencing and whole exon sequencing analysis for the desired edition. H1975-clone #28 and H1975-clone #23 were finally confirmed as homozygous Del19/T790M/C797S EGFR and Del19/C797S EGFR clones, respectively.
BaF3 WT(wild type), BaF3-LTC(L858R/T790M/C797S) and BaF3-DTC(Del19/T790M/C797S) cells are treated with compounds diluted in 0.2% DMSO cell culture medium and incubate for 16h, 37° C., 5% CO2, H1975-#36, H1975-#28, H1975-#23 and HCC827 cells are treated with compounds diluted in 0.2% DMSO cell culture medium on day 2, incubate for 16h, 37° C., 5% CO2.the final concentriation of compounds in all assay is start with 10 uM, 5-fold dilution, total 8 doses were included.
After 16h treatment, add HTRF lysis buffer to each well; seal the plate and incubate 1 hour at room temperature on a plate shaker; Once the cells are lysed, 16 μL of cell lysate are transferred to a PE 384-well HTRF detection plate; 4 μL of pre-mixed HTRF antibodies are added to each well; Cover the plate with a plate sealer, spin 1000 rpm for 1 min, Incubate overnight at room temperature; Read on BMG PheraStar with HTRF protocol (337 nm-665 nm-620 nm).
The inhibition (degradation) percentage of the compound was calculated by the following equation: Inhibition percentage of Compound=100-100×(Signal-low control)/(High control-low control), wherein signal=each test compound group
High control=Cell group with added DMSO and without compound, indicating microplate readings without EGFR degradation;
Dmax is the maximum percentage of inhibition (degradation).
The IC50 (DC50) value of a compound can be obtained by fitting the following equation
Y=Bottom+(TOP−Bottom)/(1+((IC50/X)^hillslope))
Wherein, X and Y are known values, and IC50, Hillslope, Top and Bottom are the parameters obtained by fitting with software. Y is the inhibition percentage (calculated from the equation), X is the concentration of the compound; IC50 is the concentration of the compound when the 50% inhibition is reached. The smaller the IC50 value is, the stronger the inhibitory ability of the compound is. Vice versa, the higher the IC50 value is, the weaker the inhibitory ability of the compound is; Hillslope represents the slope of the fitted curve, generally around 1*; Bottom represents the minimum value of the curve obtained by data fitting, which is generally 0%±20%; Top represents the maximum value of the curve obtained by data fitting, which is generally 100%±20%. The experimental data were fitted by calculating and analyzing with Dotmatics data analysis software.

[5] = maximum percentage of inhibition (degradation)
[6] = maximum percentage of degradation

T1 sequence (P00533 25-1210 T790M/C797S/L858R): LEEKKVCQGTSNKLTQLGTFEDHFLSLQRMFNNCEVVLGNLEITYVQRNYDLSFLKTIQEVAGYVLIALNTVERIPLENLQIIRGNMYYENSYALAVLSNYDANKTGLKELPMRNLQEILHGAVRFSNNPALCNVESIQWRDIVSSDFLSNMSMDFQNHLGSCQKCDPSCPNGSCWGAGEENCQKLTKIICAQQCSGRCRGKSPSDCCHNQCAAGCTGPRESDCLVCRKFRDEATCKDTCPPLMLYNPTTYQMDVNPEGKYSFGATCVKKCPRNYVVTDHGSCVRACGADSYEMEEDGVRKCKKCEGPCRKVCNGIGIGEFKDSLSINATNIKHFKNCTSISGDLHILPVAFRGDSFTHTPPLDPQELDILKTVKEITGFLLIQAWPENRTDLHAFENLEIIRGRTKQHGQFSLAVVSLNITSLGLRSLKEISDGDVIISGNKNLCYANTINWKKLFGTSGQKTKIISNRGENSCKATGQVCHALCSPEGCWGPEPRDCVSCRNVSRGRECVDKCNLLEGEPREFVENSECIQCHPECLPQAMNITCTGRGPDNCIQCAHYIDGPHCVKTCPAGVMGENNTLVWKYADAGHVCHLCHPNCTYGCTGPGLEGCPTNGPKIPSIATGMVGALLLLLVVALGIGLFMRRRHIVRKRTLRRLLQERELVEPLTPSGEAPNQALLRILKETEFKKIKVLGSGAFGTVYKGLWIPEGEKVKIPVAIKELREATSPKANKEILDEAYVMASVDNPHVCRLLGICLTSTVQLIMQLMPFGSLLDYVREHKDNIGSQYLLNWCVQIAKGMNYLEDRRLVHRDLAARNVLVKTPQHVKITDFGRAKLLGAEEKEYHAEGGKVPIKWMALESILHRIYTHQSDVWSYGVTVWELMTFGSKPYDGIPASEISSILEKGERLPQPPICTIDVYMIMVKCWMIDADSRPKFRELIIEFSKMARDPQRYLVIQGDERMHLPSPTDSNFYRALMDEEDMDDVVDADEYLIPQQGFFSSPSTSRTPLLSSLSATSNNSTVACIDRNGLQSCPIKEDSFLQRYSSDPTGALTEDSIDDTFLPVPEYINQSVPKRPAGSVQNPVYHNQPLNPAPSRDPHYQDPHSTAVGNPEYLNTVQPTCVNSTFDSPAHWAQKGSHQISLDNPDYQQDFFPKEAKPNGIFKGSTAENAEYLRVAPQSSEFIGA
T2 sequence (P00533 25-1210 C797S/L858R): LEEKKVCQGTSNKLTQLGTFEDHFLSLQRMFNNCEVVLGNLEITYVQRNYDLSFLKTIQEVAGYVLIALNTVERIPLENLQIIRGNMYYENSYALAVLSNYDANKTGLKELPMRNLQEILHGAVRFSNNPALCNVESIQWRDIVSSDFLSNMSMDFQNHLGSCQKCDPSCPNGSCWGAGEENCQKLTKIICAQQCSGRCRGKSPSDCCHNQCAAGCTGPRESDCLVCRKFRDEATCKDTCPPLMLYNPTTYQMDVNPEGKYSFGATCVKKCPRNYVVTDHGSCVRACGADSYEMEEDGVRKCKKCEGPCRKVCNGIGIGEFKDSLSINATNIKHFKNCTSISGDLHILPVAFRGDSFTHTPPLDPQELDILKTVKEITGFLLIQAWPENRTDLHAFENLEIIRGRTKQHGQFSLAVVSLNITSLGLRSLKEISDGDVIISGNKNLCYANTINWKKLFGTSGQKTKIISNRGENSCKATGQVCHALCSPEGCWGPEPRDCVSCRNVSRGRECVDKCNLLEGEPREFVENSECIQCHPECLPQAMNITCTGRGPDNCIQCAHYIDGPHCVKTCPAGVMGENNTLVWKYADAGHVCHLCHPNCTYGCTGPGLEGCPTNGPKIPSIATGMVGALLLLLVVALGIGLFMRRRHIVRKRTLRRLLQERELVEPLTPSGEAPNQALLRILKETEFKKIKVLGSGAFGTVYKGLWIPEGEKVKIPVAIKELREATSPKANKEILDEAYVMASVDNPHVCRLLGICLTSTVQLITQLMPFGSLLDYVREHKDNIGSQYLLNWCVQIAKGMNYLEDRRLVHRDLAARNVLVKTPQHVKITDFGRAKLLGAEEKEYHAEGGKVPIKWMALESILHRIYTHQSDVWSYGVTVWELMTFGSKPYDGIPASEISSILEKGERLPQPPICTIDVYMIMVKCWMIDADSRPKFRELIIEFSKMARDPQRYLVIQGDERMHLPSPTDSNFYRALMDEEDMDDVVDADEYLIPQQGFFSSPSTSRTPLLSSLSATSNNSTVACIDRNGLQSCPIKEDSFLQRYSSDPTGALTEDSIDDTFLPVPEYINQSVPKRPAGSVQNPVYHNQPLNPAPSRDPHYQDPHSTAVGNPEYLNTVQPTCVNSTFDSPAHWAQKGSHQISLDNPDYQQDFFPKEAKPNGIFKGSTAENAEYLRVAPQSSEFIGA

DC50 [1]	DC50 [2]	DC50 [3]	DC50 [4]	Dmax [1, 5]	Dmax [2, 6]	SMILES	Dmax (%) BaF3-LTC [1, 5]	BaF3 LC Dmax (%) [2, 6]	Dmax (%) H1975 # 28 DTC [3]	H1975 #23 DC Dmax (%) [4]
2.09 nM	3.29 nM	0.505 nM	3.26 nM	88.3%	91.5%	CCc1ccc2c(P(C)(C)=O)c(Nc3nc(Nc4cc(CC)c(N5CCC(N6CCN(CCc7ccc8c(oc(=O)n8C8CCC(=O)NC8=O)c7F)CC6)CC5)cc4OC)ncc3Br)ccc2n1 (stereo not drawn) [Example 458, 3-(6-(2-(4-(1-(4-((5-bromo-4-((5-(dimethylphosphoryl)-2-ethylquinolin-6-yl)amino)pyrimidin-2-yl)amino)-2-ethyl-5-methoxyphenyl)piperidin-4-yl)piperazin-1-yl)ethyl)-7-fluoro-2-oxobenzo[d]oxazol-3(2H)-yl)piperidine-2,6-dione]	–	–	83.62%	59.65%
16.4 nM	37.3 nM	2.43 nM	3.11 nM	–	–	CCOc1cc(N2CCC(N3CCN(CCc4cc(F)c([C@H]5CCC(=O)NC5=O)c(F)c4)CC3)CC2)c(CC)cc1Nc1ncc(Br)c(Nc2ccc3nc(CC)ncc3c2P(C)(C)=O)n1 [Example 460, (R)-3-(4-(2-(4-(1-(4-((5-bromo-4-((5-(dimethylphosphoryl)-2-ethylquinazolin-6-yl)amino)pyrimidin-2-yl)amino)-5-ethoxy-2-ethylphenyl)piperidin-4-yl)piperazin-1-yl)ethyl)-2,6-difluorophenyl)piperidine-2,6-dione]	–	–	86%	82.75%
19.2 nM	67.7 nM	1.12 nM	3.19 nM	–	–	CCOc1cc(N2CCC(N3CCN(CCc4cc(F)cc5c4n(C)c(=O)n5C4CCC(=O)NC4=O)CC3)CC2)c(CC)cc1Nc1ncc(Br)c(Nc2ccc3nc(CC)ccc3c2P(C)(C)=O)n1 (stereo not drawn) [Example 462, 3-(4-(2-(4-(1-(4-((5-bromo-4-((5-(dimethylphosphoryl)-2-ethylquinolin-6-yl)amino)pyrimidin-2-yl)amino)-5-ethoxy-2-ethylphenyl)piperidin-4-yl)piperazin-1-yl)ethyl)-6-fluoro-3-methyl-2-oxo-2,3-dihydro-1H-benzo[d]imidazol-1-yl)piperidine-2,6-dione]	–	–	78.37%	77.67%
3.34 nM	6.88 nM	0.26 nM	0.951 nM	92.6%	85.5%	CCOc1cc(N2CCC(N3CCN(CCc4ccc5c(c4)oc(=O)n5C4CCC(=O)NC4=O)CC3)CC2)c(CC)cc1Nc1ncc(Br)c(Nc2ccc3nc(CC)ccc3c2P(C)(C)=O)n1 (stereo not drawn) [Example 463, 3-(6-(2-(4-(1-(4-((5-bromo-4-((5-(dimethylphosphoryl)-2-ethylquinolin-6-yl)amino)pyrimidin-2-yl)amino)-5-ethoxy-2-ethylphenyl)piperidin-4-yl)piperazin-1-yl)ethyl)-2-oxobenzo[d]oxazol-3(2H)-yl)piperidine-2,6-dione]	–	–	82.73%	56.75%
2.46 nM	1.94 nM	1.92 nM	> 16 nM	84.5%	92.7%	CCOc1cc(N2CCC(N3CCN(CCc4cc5oc(=O)n(C6CCC(=O)NC6=O)c5cc4C)CC3)CC2)c(CC)cc1Nc1ncc(Br)c(Nc2ccc3nc(CC)ccc3c2P(C)(C)=O)n1 (stereo not drawn) [Example 465, 3-(6-(2-(4-(1-(4-((5-bromo-4-((5-(dimethylphosphoryl)-2-ethylquinolin-6-yl)amino)pyrimidin-2-yl)amino)-5-ethoxy-2-ethylphenyl)piperidin-4-yl)piperazin-1-yl)ethyl)-5-methyl-2-oxobenzo[d]oxazol-3(2H)-yl)piperidine-2,6-dione]	–	–	70.68%	48.97%
12.2 nM	66.1 nM	0.998 nM	11.9 nM	90.2%	82.8%	CCOc1cc(N2CCC(N3CCN(CCc4cccc5c4n(C4CC4)c(=O)n5C4CCC(=O)NC4=O)CC3)CC2)c(CC)cc1Nc1ncc(Br)c(Nc2ccc3nc(CC)ccc3c2P(C)(C)=O)n1 (stereo not drawn) [Example 468, 3-(4-(2-(4-(1-(4-((5-bromo-4-((5-(dimethylphosphoryl)-2-ethylquinolin-6-yl)amino)pyrimidin-2-yl)amino)-5-ethoxy-2-ethylphenyl)piperidin-4-yl)piperazin-1-yl)ethyl)-3-cyclopropyl-2-oxo-2,3-dihydro-1H-benzo[d]imidazol-1-yl)piperidine-2,6-dione]	–	–	74.46%	79.65%
11.6 nM	21.7 nM	2.6 nM	1.48 nM	90%	89.8%	CCOc1cc(N2CCC(N3CCN(CCc4cc(C)cc5c4oc(=O)n5C4CCC(=O)NC4=O)CC3)CC2)c(CC)cc1Nc1ncc(Br)c(Nc2ccc3nc(CC)ccc3c2P(C)(C)=O)n1 (stereo not drawn) [Example 469, 3-(7-(2-(4-(1-(4-((5-bromo-4-((5-(dimethylphosphoryl)-2-ethylquinolin-6-yl)amino)pyrimidin-2-yl)amino)-5-ethoxy-2-ethylphenyl)piperidin-4-yl)piperazin-1-yl)ethyl)-5-methyl-2-oxobenzo[d]oxazol-3(2H)-yl)piperidine-2,6-dione]	–	–	81.32%	73.64%

SMILES	DC50 [1]	DC50 [2]	DC50 [3]	DC50 [4]	Dmax [1, 5]	Dmax [2, 6]	Dmax (%) BaF3-LTC [1, 5]	BaF3 LC Dmax (%) [2, 6]	Dmax (%) H1975 # 28 DTC [3]	H1975 #23 DC Dmax (%) [4]
CCOc1cc(N2CCC(N3CCN(CCc4cccc5c4oc(=O)n5C4CCC(=O)NC4=O)CC3)CC2)c(CC)cc1Nc1ncc(Br)c(Nc2ccc3c(=O)n(CC)ncc3c2P(C)(C)=O)n1 (stereo not drawn) [Example 455, 3-(7-(2-(4-(1-(4-((5-bromo-4-((5-(dimethylphosphoryl)-2-ethyl-1-oxo-1,2-dihydrophthalazin-6-yl)amino)pyrimidin-2-yl)amino)-5-ethoxy-2-ethylphenyl)piperidin-4-y)piperazin-1-yl)ethyl)-2-oxobenzo[d]oxazol-3(2H)-yl)piperidine-2,6-dione]	3.83 nM	121 nM	0.47 nM	2.31 nM	–	–	87.13%	77.76%	79.19%	77.73%
